Measurements reported in patent US8278459B2, “UV-filter compounds” (DSM IP Assets B.V., priority 2007, dated 2012).

Assay: Skin binding experiment (pig ear skin, THF extraction, HPLC recovery)
Assay type: in vitro ADME
Conditions: for % UV filter bound to the skin: 2% (w) THF solution applied topically at 1 mg/cm^2, 32±1° C., duplicates
Method: The skin binding properties were determined by the following experiment. Skin samples (1 cm^2 each) were prepared by punching out from pig ear. The skin samples were placed in a 2 mL eppendorf plastic tube. The studied compounds were applied topically as a 2% (w) THF solution on the skin surface at a mean dose rate of 1 mg/cm^2. The samples were placed in a heatingblock and maintained at a normal skin temperature of 32±1° C. for the duration of the exposure period. At the end of the experiment, after 24 hours, respectively 72 h, each skin probe was extracted by shaking with 1000 μl of THF for 1 min and the resulting solution was analyzed by HPLC. The experiments were run in duplicates.
Compounds B and was tested for their skin-binding capacity, while compound A (described in Kawashita, Y; Nakamichi, N.; Kawabata, H.; Hayashi, M. Org. Lett. 2003, 5, 3713-3715) was used as a non-binding reference.
Skin fraction samples were injected into the HPLC system using DAD detection with the following conditions:
The % of UV filter bound to the skin was determined by calculation of the recovery rate using the following equation: […]

% UV filter bound to the skin (After 24 h) [%]	% UV filter bound to the skin (After 72 h) [%]	adhesion to the skin (in words) (compared to the non-binding compound A)	SMILES
96.6	100	significant adhesion to the skin	O=C(CO)C(O)C(O)c1ccc(-c2nc3ccccc3o2)cc1 (centres unmarked) [Compound B, 4-(4-Benzoxazol-2-yl-phenyl)-1,3,4-trihydroxy-butan-2-one]
36.3	61.1		Cc1ccc(-c2nc3ccccc3o2)cc1 [Compound A, reference compound]
